For orientation: LD50 means the dose expected to kill half of the subjects tested.

For four molecules, LC50, LD50 and Stability results are on record in patent US4029688A, “Carbamic pesticidal compositions” (priority 1974, dated 1977).

SMILES strings stand for the structures. Values after ≈ are worked out from the molar mass of the structure shown.

Data set [1] deals with southern armyworm (Prodenia eridania, (Cram.)). Kind of data set: Southern Armyworm Leaf Spray Test. The format is in vivo. The conditions noted are these: Spodoptera eridania; Table II; read-out: Armyworm LD50. The method, then:
(§1) Suspensions of the test compounds were prepared by dissolving one gram of compound in 50 milliliters of acetone in which had been dissolved 0.1 gram (10 percent of the weight of compound) of an alkylphenoxy polyethoxyethanol surfactant, as an emulsifying or dispersing agent. The resulting solution was mixed into 150 milliliters of water to give roughly 200 milliliters of a suspension containing the compound in finely divided form. The thus-prepared stock suspension contained 0.5 percent by weight of compound. The test concentrations in parts per million by weight employed in the tests described hereinbelow were obtained by appropriate dilutions of the stock suspension with water. The test procedures were as follows:
Larvae of the southern armyworm (Prodenia eridania, (Cram.)), reared on Tendergreen bean plants at a temperature of 80°±5° F. and a relative humidity of 50±5 percent, constituted the test insects.
The test compounds were formulated by diluting the stock suspension with water to give a suspension containing 500 parts of test compound per million parts of final formulation. Potted Tendergreen bean plants of standard height and age were placed on a revolving turntable and sprayed with 100-110 milliliters of test compound formulation by use of a DeVilbiss spray gun set at 10 psig air pressure. This application, which lasted 25 seconds, was sufficient to wet plants to run-off. As a control, 100-110 milliliters of a water-acetone-emulsifier solution containing no test compound were also sprayed on infested plants. When dry, the paired leaves were separated and each one was placed in a 9 centimeter Petri dish lined with moistened filter paper. Five randomly selected larvae were introduced into each dish and the dishes were closed. The closed dishes were labeled and held at 80-85° F. for three days. Although the larvae could easily consume the whole leaf within twenty-four hours, no more food was added. Larvae which were unable to move the length of the body, even upon stimulation by prodding, were considered dead. Percent mortality was recorded for various concentration levels.
(§2) In the tests described above, the pesticidal activity of the compounds against aphid, mite, Southern Armyworm, Bean Beetle, house fly and nematode was rated as follows:
(§3) Comparison tests were conducted to assess the biological and chemical properties of certain representative species of the claimed invention in relation to their corresponding N-methyl carbamate compositions. The test procedures described above were employed in these experiments in order to determine the LD50 (number of parts per million of active ingredients required to achieve fifty percent mortality of the insects tested) for each of the compositions tested. In the case of the aphid and mite tests a side by side comparison was made of the N-methyl carbamate composition versus the corresponding perhalomethylsulfenyl derivative.

A short description of data set [2]: Peroral toxicity to mammals (rat). The conditions noted are these: in vivo, po, Table II. The method, then: Certain of these compositions were also evaluated to determine their peroral toxicity to mammals. The animal selected for this experiment was the rat. The test results obtained are expressed in terms of the number of milligrams of composition per kilogram of weight of the animal required to achieve a mortality rate of 50 percent (LD50).

Data set [3] has as its system bean aphid (Aphis fabae Scop.). Kind of data set: Bean Aphid Foliage Spray Test. Format: in vivo. As to conditions: Aphis fabae, foliar; Table II, side by side comparison; read-out: Aphids LD50. The method, then:
as §1
Adults and nymphal stages of the bean aphid (Aphis fabae Scop.) reared on potted dwarf nasturtium plants at 65°-70° F. and 50-70 percent relative humidity, constituted the test insects. For testing purposes, the number of aphids per pot was standardized to 100-150 by trimming plants containing excess aphids.
The test compounds were formulated by diluting the stock suspension with water to give a suspension containing 500 parts of test compound per million parts of final formulation.
The potted plants (one pot per compound tested) infested with 100-150 aphids, were placed on a revolving turntable and sprayed with 100-110 milliliters of test compound formulation by use of a DeVilbiss spray gun set at 40 psig. air pressure. This application, which lasted 25 seconds, was sufficient to wet the plants to run-off. As a control, 100-110 milliliters of a water-acetone-emulsifier solution containing no test compound were also sprayed on infested plants. After spraying, the pots were placed on their sides on a sheet of white standard mimeograph paper which had been previously ruled to facilitate counting. Temperature and humidity in the test room during the 24 hour holding period were 65°-70° F. and 50-70 percent, respectively. Aphids which fell onto the paper and were unable to remain standing after being uprighted were considered dead. Aphids remaining on the plants were observed closely for movement and those which were unable to move the length of the body upon stimulation by prodding were considered dead. Percent mortality was recorded for various concentration levels.
as §2, §3

Data set [4] relates to two-spotted mite (Tetranychus urticae Koch). Kind of data set: Mite Foliage Spray Test. The format is in vivo. As to conditions: Tetranychus urticae, foliar; Table II, side by side comparison; read-out: Mites Spray LD50. The method, then:
as §1
Adults and numphal stages of the two-spotted mite (Tetranychus urticae Koch), reared on Tendergreen bean plants at 80±5 percent relative humidity, were the test organisms. Infested leaves from a stock culture were placed on the primary leaves of two bean plants six to eight inches in height, growing in a 21/2 inch clay pot. 150 -200 Mites, a sufficient number for testing, transferred from the excised leaves to the fresh plants in a period of twenty-four hours. Following the twenty-four hour transfer period, the excised leaves were removed from the infested plants. The test compounds were formulated by diluting the stock suspension with water to give a suspension containing 500 parts of test compound per million parts of final formulation. The potted plants (one pot per compound) were placed on a revolving turntable and sprayed with 100-110 milliliters of test compound formulation by use of a DeVilbiss spray gun set at 40 psig. air pressure. This application, which lasted 25 seconds, was sufficient to wet the plants to run-off. As a control, 100-110 milliliters of a water solution containing acetone and emulsifier in the same concentrations as the test compound formulation, but containing no test compound, were also sprayed on infested plants. The sprayed plants were held at 80±5 percent relative humidity for six days, after which a mortality count of motile forms was made. Microscopic examination for motile forms was made on the leaves of the test plants. Any individual which was capable of locomotion upon prodding was considered living.
as §2, §3

In data set [5] the test system is house flies (Musca domestica, L.). Put plainly: Fly Bait Test. Format: in vivo. As to conditions: Musca domestica; Table II; read-out: Housefly LD50. The method, then:
as §1
Four to six day old adult house flies (Musca domestica, L.), reared according to the specifications of the Chemical Specialties Manufacturing Association (Blue Book, McNair-Dorland Co., N. Y. 1954; pages 243-244, 261) under controlled conditions of 80°±5° F. and 50±5 percent relative humidity, were the test insects. The flies were immobilized by anesthetizing with carbon dioxide and twenty-five immobilized individuals, males and females, were transferred to a cage consisting of a standard food strainer about five inches in diameter which was inverted over a wrapping-paper-covered surface. The test compounds were formulated by diluting the stock suspension with a 10 percent (by weight) sugar solution to give a suspension containing 500 parts of test compound per million parts of final formulation, by weight. Ten milliliters of the test formulation were added to a souffle cup containing a one-inch square of an absorbent cotton pad. This bait cup was introduced and centered on the blotting paper under the food strainer prior to admitting the anesthetized flies. The caged flies were allowed to feed on the bait for twenty-four hours, at a temperature of 80°±5° F. and the relative humidity of 50±5 percent.
as §2, §3

The next data set in a line: Chemical stability. The format is physicochemical. As to conditions: Table II.
Data set [6] relates to Mexican bean beetle (Epilachna varivestis, Muls.). Put plainly: Mexican Bean Beetle Leaf Spray Test. Format: in vivo. The conditions noted are these: Epilachna varivestis; Table II; read-out: Beetle LD50. The method, then:
as §1
Fourth instar larvae of the Mexican bean beetle (Epilachna varivestis, Muls.), reared on Tendergreen bean plants at a temperature of 80°±5° F. and 50±5 percent relative humidity, were the test insects.
The test compounds were formulated by diluting the stock suspension with water to give a suspension containing 500 parts of test compound per million parts of final formulation. Potted Tendergreen bean plants of standard height and age were placed on a revolving turntable and sprayed with 100-110 milliliters of test compound formulation by use of a DeVilbiss spray gun set at 10 psig air pressure. This application, which lasted 25 seconds, was sufficient to wet plants to run-off. As a control, 100-110 milliliters of a water-acetone-emulsifier solution containing no test compound were also sprayed on infested plants. When dry, the paired leaves were separated and each was placed in a 9 centimeter Petri dish lined with moistened filter paper. Five randomly selected larvae were introduced into each dish, and the dishes were closed. The closed dishes were labeled and held at a temperature of 80°±5° F. for three days. Although the larvae could easily consume the leaf within 24 to 48 hours, no more food was added. Larvae which were unable to move the length of the body, even upon stimulation, were considered dead.
as §2, §3

Regarding `CNC(=O)ON=C(C)SCCC#N` [drawing 23 R=H, reference compound], the LC50 was found to be 5 µg/mL (≈ 24.8 µM) in data set [1]; 8 µg/mL (≈ 39.8 µM) in data set [3]; 8 µg/mL (≈ 39.8 µM) in data set [4]; 2 µg/mL (≈ 9.94 µM) in data set [5]; 25 µg/mL (≈ 124 µM) in data set [6]. Besides, in data set [2], the 50% lethal dose (LD50) was 7.7 mg/kg. Also, the Stability result in “Chemical stability” is “stable”.
Regarding `CNC(=O)ON=CC(C)(C)C#N` [drawing 22 R=H, X=CN, reference compound], the LC50 is 55 µg/mL (≈ 325 µM) in data set [1]; 12 µg/mL (≈ 70.9 µM) in data set [3]; 40 µg/mL (≈ 236 µM) in data set [4]; 3 µg/mL (≈ 17.7 µM) in data set [5]; 65 µg/mL (≈ 384 µM) in data set [6]. This molecule also came in with a median lethal dose (LD50) in data set [2] of 9.5 mg/kg. The Stability result in the data set “Chemical stability” is recorded as “unstable”.
Take `CNC(=O)ON=CC(C)(C)[N+](=O)[O-]` [drawing 22 R=H, X=NO2, reference compound]: the LC50 worked out at 55 µg/mL (≈ 291 µM) in data set [1]; 6 µg/mL (≈ 31.7 µM) in data set [3]; 32 µg/mL (≈ 169 µM) in data set [4]; 3 µg/mL (≈ 15.9 µM) in data set [5]; 80 µg/mL (≈ 423 µM) in data set [6]. Further, the LD50 in data set [2] is 4 mg/kg. Moreover, the Stability result in the data set “Chemical stability” was “unstable”.
In the case of `CN(SC(F)(F)F)C(=O)ON=CC(C)(C)C#N` [drawing 22 R=SCF3, X=CN, 2-Methyl-2-cyanopropionaldehyde O-(N-methyl-N-trifluoromethanesulfenylcarbamoyl)oxime], the LC50 was determined as 300 µg/mL (≈ 1110 µM) in data set [1]; 38 µg/mL (≈ 141 µM) in data set [3]; 90 µg/mL (≈ 334 µM) in data set [4]; 14 µg/mL (≈ 52 µM) in data set [5]; 40 µg/mL (≈ 149 µM) in data set [6]. The Stability result in “Chemical stability” is “stable”.
